Results published in PubChem BioAssay AID328 (DTP/NCI, 2004).
Several values for one entry are separate records, joined by “and”; a condition that tells them apart may be missing. Equal values may be shown once. Toxic doses and inconclusive results are not listed. How the source made its calls: active means survival T/C of 150% or more; inactive means T/C below 125% in these data.

Test system: BDF1 mice, P388 leukemia ip, median survival T/C
Assay: NCI In Vivo Anticancer Drug Screen. Data for tumor model P388 Leukemia (intraperitoneal) in B6D2F1 (BDF1) mice
Conditions: endpoint: median survival time, higher = longer survival
Summary of the method: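 Each value expresses how treatment altered survival: treated-mouse outcome over vehicle-mouse outcome, both groups bearing the transplanted tumour.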

[1] = dose: 100.0 mg/kg/injection, schedule: Q01DX009 (ip), vehicle: saline
[2] = dose: 100.0 mg/kg/injection, schedule: Q04DX003 (ip), vehicle: saline with Tween-80
[3] = dose: 200.0 mg/kg/injection, schedule: Q01DX009 (ip), vehicle: saline
[4] = dose: 200.0 mg/kg/injection, schedule: Q04DX003 (ip), vehicle: saline with Tween-80
[5] = dose: 400.0 mg/kg/injection, schedule: Q01DX009 (ip), vehicle: saline
[6] = dose: 400.0 mg/kg/injection, schedule: Q04DX003 (ip), vehicle: saline with Tween-80

Measured: T/C

O=S(=O)(O)C1(O)CCCCC1
inactive: [1] 105 % of control | [2] 95 % of control | dose: 100.0 mg/kg/injection, schedule: Q04DX003 (ip), vehicle: saline 109 % of control | [3] 100 % of control | [4] 104 % of control | dose: 200.0 mg/kg/injection, schedule: Q04DX003 (ip), vehicle: saline 104 % of control | [5] 105 % of control | [6] 100 % of control | dose: 400.0 mg/kg/injection, schedule: Q04DX003 (ip), vehicle: saline 100 % of control

CSc1ccc(OC(=O)Nc2ccc(C)c([N+](=O)[O-])c2)cc1C
inactive: [2] 90 % of control | [4] 95 % of control | [6] 104 % of control

CCCCC(C#N)(C(=O)OCC)C(C)(C)C (stereo unspecified)
inactive: [1] 109 % of control | [3] 118 % of control | [5] 90 % of control

OCC#CC#CCO
inactive: dose: 25.0 mg/kg/injection, schedule: Q01DX001 (ip), vehicle: saline 95 % of control | dose: 50.0 mg/kg/injection, schedule: Q01DX001 (ip), vehicle: saline 118 % of control | dose: 100.0 mg/kg/injection, schedule: Q01DX001 (ip), vehicle: saline 100 % of control and 109 % of control

COC(OC)c1[nH]c(=S)[nH]c(=O)c1Cc1cccc(Cl)c1
inactive: dose: 100.0 mg/kg/injection, schedule: Q01DX001 (ip), vehicle: Klucel (hydroxypropylcellulose) (HPC) 109 % of control | dose: 100.0 mg/kg/injection, schedule: Q01DX009 (ip), vehicle: Klucel (hydroxypropylcellulose) (HPC) 122 % of control | dose: 100.0 mg/kg/injection, schedule: Q04DX003 (ip), vehicle: Klucel (hydroxypropylcellulose) (HPC) 113 % of control | dose: 200.0 mg/kg/injection, schedule: Q01DX001 (ip), vehicle: Klucel (hydroxypropylcellulose) (HPC) 104 % of control | dose: 200.0 mg/kg/injection, schedule: Q04DX003 (ip), vehicle: Klucel (hydroxypropylcellulose) (HPC) 100 % of control | dose: 400.0 mg/kg/injection, schedule: Q01DX001 (ip), vehicle: Klucel (hydroxypropylcellulose) (HPC) 104 % of control | dose: 400.0 mg/kg/injection, schedule: Q01DX009 (ip), vehicle: Klucel (hydroxypropylcellulose) (HPC) 100 % of control | dose: 400.0 mg/kg/injection, schedule: Q04DX003 (ip), vehicle: Klucel (hydroxypropylcellulose) (HPC) 95 % of control

CCOC(=O)C(C)(C)CN(CC(C)(C)C(=O)OCC)c1ccccc1
inactive: [2] 115 % of control | [4] 115 % of control | [6] 120 % of control

COc1ccccc1OC(=O)Nc1ccccc1F
inactive: [2] 90 % of control | [4] 90 % of control | [6] 100 % of control

Clc1ccc(/C=N\N=C\c2ccc(Cl)c(Cl)c2)cc1Cl
inactive: [2] 105 % of control | [4] 111 % of control | [6] 111 % of control

[Cl][Rh][Cl].c1cn[nH]c1.c1cn[nH]c1.c1cn[nH]c1.c1cn[nH]c1
inactive: dose: 12.5 mg/kg/injection, schedule: Q01DX009 (ip), vehicle: Klucel (hydroxypropylcellulose) (HPC) 114 % of control | dose: 25.0 mg/kg/injection, schedule: Q01DX009 (ip), vehicle: Klucel (hydroxypropylcellulose) (HPC) 94 % of control

N#Cc1cn(C2OC(CO)C(O)C2O)c2nc(Cl)nc(N)c12 (stereo unspecified)
inactive: dose: 6.25 mg/kg/injection, schedule: Q04DX003 (ip), vehicle: saline 112 % of control
active: dose: 12.5 mg/kg/injection, schedule: Q04DX003 (ip), vehicle: saline 166 % of control | dose: 25.0 mg/kg/injection, schedule: Q04DX003 (ip), vehicle: saline 166 % of control

ClCCN(CCCl)c1ccc(C=Nc2ccc(/C=C\c3ccncc3)cc2)cc1
inactive: dose: 12.5 mg/kg/injection, schedule: Q01DX009 (ip), vehicle: saline with Tween-80 115 % of control | dose: 25.0 mg/kg/injection, schedule: Q01DX009 (ip), vehicle: saline with Tween-80 101 % of control | dose: 50.0 mg/kg/injection, schedule: Q01DX009 (ip), vehicle: saline with Tween-80 98 % of control | dose: 100.0 mg/kg/injection, schedule: Q01DX009 (ip), vehicle: saline with Tween-80 89 % of control

COC(=O)c1cc(=O)nc(N/N=C/c2ccc(OC)cc2)s1
inactive: dose: 50.0 mg/kg/injection, schedule: Q01DX005 (ip), vehicle: saline with Tween-80 102 % of control | dose: 100.0 mg/kg/injection, schedule: Q01DX005 (ip), vehicle: saline with Tween-80 102 % of control | dose: 200.0 mg/kg/injection, schedule: Q01DX005 (ip), vehicle: saline with Tween-80 102 % of control

CCCCCCC(O)CCCCCC
inactive: dose: 100.0 mg/kg/injection, schedule: Q01DX009 (ip), vehicle: other 90 % of control | dose: 200.0 mg/kg/injection, schedule: Q01DX009 (ip), vehicle: other 105 % of control

CCCCC(C)(CN(C)C)C(=O)/C=C/c1ccc(Cl)c(Cl)c1 (stereo unspecified)
inactive: dose: 6.25 mg/kg/injection, schedule: Q01DX009 (ip), vehicle: saline 112 % of control | dose: 12.5 mg/kg/injection, schedule: Q01DX009 (ip), vehicle: saline 120 % of control | dose: 25.0 mg/kg/injection, schedule: Q01DX009 (ip), vehicle: saline 118 % of control

CSc1ncnc2nc[nH]c12
inactive: dose: 25.0 mg/kg/injection, schedule: Q01DX010 (ip), vehicle: saline 100 % of control | dose: 50.0 mg/kg/injection, schedule: Q01DX010 (ip), vehicle: saline 100 % of control | dose: 100.0 mg/kg/injection, schedule: Q01DX010 (ip), vehicle: saline 95 % of control and 100 % of control | dose: 200.0 mg/kg/injection, schedule: Q01DX010 (ip), vehicle: saline 104 % of control and 105 % of control
